The target in assay [1] is Tyrosine-protein kinase BTK (Homo sapiens, UniProt Q06187). Kind of assay: Selectivity interaction (ActivX KiNativ screen (ex vivo kinase selectivity in human PBMCs)) EUB0001619a BTK. The format is cell-based. The following applies: PBMC, at 1 µM.
Assay [2] concerns the target T1, Calcium/calmodulin-dependent protein kinase type IV (Homo sapiens) (UniProt Q16566).
T1 sequence (whole entry): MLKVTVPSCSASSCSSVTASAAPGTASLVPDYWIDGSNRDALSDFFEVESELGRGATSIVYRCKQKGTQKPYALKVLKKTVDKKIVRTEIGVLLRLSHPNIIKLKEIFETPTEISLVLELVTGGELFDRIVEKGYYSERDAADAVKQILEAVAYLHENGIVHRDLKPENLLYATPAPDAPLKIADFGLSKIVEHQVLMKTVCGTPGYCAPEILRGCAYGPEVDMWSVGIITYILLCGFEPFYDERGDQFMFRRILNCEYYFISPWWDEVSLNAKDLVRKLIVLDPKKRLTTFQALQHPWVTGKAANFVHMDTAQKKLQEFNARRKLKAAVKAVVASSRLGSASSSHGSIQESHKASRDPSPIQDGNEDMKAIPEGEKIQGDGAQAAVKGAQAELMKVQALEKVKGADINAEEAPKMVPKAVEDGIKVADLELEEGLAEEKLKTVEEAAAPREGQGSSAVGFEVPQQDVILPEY
Kind of assay: Selectivity interaction (ActivX KiNativ screen (kinase selectivity in THP-1 cell lysates)) EUB0000639a CAMK4. Format: subcellular. To be noted: lysate.

Assay [3] addresses Serine/threonine-protein kinase PAK 6 (Homo sapiens) (UniProt Q9NQU5). In words: Selectivity interaction (Kinase panel (Invitrogen)) EUB0000639a PAK6. The following applies: at 200 nM.
The target in assay [4] is Ribosomal protein S6 kinase alpha-4 (Homo sapiens) (UniProt O75676). Kind of assay: Selectivity interaction (ProQinase) EUB0000171b RPS6KA4.
Assay [5] concerns the target Mitogen-activated protein kinase 8 (Homo sapiens, UniProt P45983). In words: Selectivity interaction (Ambit KINOMEscan and KiNATiv profiling in Jurkat cells) EUB0000090b MAPK8. The format is cell-based. To be noted: at 1 µM.
For assay [6], the target named is Vascular endothelial growth factor receptor 3 (Homo sapiens, UniProt P35916). Kind of assay: Selectivity interaction (KinomeScan (DiscoverX)) EUB0001049a FLT4. To be noted: at 1 µM.
Assay [7] addresses Tyrosine-protein kinase FRK (Homo sapiens) (UniProt P42685). Kind of assay: Selectivity interaction (Upstate Kinase Profiler service (Millipore)) EUB0000056c FRK. The following applies: at 1 µM.
Assay [8] deals with T2, Mitogen-activated protein kinase kinase kinase kinase 2 (Homo sapiens) (UniProt Q12851).
T2 sequence (whole entry): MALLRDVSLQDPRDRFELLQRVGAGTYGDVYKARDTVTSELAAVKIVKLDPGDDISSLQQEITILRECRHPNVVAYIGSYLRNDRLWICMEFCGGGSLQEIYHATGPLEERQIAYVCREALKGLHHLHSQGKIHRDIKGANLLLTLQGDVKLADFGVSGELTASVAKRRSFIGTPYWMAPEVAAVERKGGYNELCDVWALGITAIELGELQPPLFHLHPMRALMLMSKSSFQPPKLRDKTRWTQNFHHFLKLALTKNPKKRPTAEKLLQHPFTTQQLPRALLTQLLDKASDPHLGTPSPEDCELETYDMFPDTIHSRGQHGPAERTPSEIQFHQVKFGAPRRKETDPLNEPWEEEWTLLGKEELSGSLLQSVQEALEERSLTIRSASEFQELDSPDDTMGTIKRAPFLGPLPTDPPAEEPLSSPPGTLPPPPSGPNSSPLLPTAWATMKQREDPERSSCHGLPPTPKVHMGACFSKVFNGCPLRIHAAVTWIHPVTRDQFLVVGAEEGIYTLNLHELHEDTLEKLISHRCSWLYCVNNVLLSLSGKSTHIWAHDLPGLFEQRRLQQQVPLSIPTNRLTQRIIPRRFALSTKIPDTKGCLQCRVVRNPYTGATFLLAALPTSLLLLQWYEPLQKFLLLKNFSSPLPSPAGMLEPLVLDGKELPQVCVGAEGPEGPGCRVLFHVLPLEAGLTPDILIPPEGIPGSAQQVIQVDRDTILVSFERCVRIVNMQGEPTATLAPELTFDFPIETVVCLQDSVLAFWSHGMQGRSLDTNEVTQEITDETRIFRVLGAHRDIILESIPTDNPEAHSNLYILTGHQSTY
In words: Selectivity interaction (KinomeScan (DiscoverX)) EUB0000655a MAP4K2. To be noted: at 10 µM.

For assay [9], the target named is Calcium/calmodulin-dependent protein kinase type 1G (Homo sapiens) (UniProt Q96NX5). In words: Selectivity interaction (KinomeScan (DiscoverX)) EUB0000655a CAMK1G. The following applies: at 10 µM.
Assay [10] concerns the target Mitogen-activated protein kinase 7 (Homo sapiens) (UniProt Q13164). In words: Selectivity interaction (KinomeScan (DiscoverX)) EUB0000618a MAPK7. The following applies: at 10 µM.
In assay [11] the target is T3, Dual specificity mitogen-activated protein kinase kinase 4 (Homo sapiens) (UniProt P45985).
T3 sequence (whole entry): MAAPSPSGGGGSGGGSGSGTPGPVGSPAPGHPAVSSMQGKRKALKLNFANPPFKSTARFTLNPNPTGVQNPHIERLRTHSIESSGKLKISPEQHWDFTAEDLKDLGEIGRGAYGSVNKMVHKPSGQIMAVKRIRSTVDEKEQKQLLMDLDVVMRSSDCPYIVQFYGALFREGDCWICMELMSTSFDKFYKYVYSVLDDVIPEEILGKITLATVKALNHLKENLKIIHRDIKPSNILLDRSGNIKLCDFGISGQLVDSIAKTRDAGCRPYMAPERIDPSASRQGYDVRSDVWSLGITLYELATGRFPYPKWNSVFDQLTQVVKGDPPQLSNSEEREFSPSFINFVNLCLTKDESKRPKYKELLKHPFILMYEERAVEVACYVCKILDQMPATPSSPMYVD
In words: Selectivity interaction (KinomeScan (DiscoverX)) EUB0000229b MAP2K4. The following applies: at 10 µM.

Our source for the % of inhibition, % of control and % binding values is ChEMBL document CHEMBL5465560, “Selectivity Literature for EUbOPEN Chemogenomic Library” (2024).

Sequence of Ribosomal protein S6 kinase alpha-4 (Homo sapiens) (O75676 whole entry, looked up): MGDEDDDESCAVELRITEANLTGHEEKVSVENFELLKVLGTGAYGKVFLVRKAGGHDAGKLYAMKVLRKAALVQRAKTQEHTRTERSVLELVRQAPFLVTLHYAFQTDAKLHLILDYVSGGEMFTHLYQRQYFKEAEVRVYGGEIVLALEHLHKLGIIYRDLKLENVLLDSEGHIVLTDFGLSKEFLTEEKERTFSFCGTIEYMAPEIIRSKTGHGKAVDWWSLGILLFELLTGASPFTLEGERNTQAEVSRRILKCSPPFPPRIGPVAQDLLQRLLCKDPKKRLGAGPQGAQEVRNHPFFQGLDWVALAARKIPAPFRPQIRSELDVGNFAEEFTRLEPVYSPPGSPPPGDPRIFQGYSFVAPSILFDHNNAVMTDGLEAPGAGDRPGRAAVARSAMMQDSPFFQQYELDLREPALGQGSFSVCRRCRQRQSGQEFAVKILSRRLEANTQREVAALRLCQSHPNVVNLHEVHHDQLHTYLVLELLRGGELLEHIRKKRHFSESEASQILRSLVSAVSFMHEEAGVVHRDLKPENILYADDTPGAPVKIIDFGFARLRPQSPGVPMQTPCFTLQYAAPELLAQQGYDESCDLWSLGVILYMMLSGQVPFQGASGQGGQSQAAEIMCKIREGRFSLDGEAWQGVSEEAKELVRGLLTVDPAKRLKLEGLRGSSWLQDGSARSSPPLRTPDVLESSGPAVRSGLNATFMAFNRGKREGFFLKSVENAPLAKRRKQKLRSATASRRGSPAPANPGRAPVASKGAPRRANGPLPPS
Sequence of Mitogen-activated protein kinase 7 (Homo sapiens) (Q13164 2-816 limits assumed): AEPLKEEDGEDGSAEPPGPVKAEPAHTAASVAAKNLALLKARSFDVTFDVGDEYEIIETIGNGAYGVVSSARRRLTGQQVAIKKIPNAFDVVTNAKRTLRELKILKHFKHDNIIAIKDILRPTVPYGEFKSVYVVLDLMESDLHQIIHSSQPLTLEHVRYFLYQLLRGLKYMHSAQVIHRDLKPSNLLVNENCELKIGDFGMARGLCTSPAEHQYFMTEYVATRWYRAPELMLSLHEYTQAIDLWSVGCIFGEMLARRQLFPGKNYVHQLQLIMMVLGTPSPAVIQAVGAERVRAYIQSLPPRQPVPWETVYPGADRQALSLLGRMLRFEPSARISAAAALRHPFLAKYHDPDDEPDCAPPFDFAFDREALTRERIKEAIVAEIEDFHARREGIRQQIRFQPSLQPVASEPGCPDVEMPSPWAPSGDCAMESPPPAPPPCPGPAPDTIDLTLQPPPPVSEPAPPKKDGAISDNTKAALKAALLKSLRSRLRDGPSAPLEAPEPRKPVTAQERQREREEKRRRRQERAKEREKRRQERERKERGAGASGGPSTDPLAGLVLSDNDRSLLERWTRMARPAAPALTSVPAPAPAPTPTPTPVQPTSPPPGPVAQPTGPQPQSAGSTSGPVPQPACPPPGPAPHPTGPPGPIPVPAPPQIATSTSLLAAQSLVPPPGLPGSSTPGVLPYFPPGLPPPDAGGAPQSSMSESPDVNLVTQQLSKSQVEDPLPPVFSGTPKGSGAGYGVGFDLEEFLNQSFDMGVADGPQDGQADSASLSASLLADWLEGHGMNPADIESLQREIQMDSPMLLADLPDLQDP
Sequence of Serine/threonine-protein kinase PAK 6 (Homo sapiens) (Q9NQU5 whole entry, looked up): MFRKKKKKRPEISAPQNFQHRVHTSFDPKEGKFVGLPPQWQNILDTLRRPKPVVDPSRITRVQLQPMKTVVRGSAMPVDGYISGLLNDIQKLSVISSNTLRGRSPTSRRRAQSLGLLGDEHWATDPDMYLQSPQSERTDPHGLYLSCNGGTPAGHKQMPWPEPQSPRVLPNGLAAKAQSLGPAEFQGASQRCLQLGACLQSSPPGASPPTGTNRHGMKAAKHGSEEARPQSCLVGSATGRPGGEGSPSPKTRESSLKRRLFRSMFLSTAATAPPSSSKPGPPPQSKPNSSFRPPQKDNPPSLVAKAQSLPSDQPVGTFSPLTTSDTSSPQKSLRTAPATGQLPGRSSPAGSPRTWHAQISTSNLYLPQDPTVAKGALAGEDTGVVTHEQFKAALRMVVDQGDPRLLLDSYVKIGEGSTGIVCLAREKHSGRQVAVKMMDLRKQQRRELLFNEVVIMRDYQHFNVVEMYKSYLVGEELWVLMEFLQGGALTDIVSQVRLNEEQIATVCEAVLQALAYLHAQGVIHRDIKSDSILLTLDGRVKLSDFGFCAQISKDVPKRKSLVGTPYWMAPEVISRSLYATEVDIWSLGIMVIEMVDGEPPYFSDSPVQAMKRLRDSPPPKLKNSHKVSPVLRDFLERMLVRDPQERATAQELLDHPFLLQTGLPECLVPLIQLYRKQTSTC
Sequence of Mitogen-activated protein kinase 8 (P45983 whole entry): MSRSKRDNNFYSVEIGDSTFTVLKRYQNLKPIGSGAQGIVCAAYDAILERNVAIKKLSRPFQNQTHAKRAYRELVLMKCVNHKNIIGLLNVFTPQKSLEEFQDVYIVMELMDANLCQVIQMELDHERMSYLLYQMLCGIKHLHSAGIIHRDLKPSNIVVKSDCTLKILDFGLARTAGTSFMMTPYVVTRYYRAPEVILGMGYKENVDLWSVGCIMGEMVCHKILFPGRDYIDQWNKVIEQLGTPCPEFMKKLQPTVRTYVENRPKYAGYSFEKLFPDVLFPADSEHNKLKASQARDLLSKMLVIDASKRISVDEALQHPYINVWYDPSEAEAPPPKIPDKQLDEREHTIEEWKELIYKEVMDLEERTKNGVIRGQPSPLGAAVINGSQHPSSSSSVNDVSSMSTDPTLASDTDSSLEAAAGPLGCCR
Sequence of Calcium/calmodulin-dependent protein kinase type 1G (Homo sapiens) (Q96NX5 whole entry): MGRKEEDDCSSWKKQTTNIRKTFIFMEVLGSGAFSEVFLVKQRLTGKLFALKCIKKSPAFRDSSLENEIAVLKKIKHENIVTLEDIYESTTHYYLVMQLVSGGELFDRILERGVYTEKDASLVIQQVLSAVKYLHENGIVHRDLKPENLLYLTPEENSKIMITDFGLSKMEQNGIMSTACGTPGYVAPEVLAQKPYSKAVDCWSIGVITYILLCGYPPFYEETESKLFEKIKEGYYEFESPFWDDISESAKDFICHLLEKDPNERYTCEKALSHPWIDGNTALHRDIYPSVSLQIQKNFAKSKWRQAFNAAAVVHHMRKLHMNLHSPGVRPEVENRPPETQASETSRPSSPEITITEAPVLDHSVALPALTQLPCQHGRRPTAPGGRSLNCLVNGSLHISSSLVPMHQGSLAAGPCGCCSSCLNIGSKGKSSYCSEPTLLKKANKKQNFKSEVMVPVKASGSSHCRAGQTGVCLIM
Sequence of Vascular endothelial growth factor receptor 3 (P35916 whole entry): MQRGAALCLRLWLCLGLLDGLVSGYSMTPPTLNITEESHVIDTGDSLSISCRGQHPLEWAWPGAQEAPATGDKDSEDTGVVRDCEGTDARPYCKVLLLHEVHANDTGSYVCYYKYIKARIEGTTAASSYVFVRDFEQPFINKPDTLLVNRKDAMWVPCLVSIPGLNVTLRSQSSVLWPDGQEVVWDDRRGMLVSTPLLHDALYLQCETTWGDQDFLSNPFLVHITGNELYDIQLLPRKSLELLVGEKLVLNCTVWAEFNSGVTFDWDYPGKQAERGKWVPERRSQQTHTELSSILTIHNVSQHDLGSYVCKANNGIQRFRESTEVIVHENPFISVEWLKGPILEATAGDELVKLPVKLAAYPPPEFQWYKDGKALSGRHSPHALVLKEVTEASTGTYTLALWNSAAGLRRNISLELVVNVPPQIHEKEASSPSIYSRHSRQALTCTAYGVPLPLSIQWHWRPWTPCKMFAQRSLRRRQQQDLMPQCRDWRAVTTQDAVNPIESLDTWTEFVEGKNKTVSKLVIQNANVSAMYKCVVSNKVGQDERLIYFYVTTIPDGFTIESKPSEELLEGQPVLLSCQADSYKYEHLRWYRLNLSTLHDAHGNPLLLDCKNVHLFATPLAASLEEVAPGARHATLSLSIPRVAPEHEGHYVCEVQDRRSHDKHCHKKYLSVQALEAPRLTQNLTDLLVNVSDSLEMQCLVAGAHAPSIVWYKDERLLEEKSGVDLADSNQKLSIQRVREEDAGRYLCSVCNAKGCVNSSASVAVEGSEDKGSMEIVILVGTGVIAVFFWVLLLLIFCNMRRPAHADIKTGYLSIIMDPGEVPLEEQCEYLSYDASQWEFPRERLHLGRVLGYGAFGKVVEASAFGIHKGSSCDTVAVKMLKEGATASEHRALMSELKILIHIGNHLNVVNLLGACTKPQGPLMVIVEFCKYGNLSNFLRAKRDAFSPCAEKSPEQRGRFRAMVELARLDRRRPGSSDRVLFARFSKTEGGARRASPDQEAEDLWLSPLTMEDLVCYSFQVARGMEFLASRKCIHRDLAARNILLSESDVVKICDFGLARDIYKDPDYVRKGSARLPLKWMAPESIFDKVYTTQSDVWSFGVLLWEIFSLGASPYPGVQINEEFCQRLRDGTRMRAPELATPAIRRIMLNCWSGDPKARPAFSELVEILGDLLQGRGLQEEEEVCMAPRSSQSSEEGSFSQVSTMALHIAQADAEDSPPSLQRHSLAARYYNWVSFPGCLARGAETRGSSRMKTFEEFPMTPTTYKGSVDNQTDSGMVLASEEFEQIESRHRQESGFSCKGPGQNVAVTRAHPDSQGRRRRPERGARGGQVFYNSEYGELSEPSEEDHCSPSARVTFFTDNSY
Sequence of Tyrosine-protein kinase FRK (Homo sapiens) (P42685 whole entry): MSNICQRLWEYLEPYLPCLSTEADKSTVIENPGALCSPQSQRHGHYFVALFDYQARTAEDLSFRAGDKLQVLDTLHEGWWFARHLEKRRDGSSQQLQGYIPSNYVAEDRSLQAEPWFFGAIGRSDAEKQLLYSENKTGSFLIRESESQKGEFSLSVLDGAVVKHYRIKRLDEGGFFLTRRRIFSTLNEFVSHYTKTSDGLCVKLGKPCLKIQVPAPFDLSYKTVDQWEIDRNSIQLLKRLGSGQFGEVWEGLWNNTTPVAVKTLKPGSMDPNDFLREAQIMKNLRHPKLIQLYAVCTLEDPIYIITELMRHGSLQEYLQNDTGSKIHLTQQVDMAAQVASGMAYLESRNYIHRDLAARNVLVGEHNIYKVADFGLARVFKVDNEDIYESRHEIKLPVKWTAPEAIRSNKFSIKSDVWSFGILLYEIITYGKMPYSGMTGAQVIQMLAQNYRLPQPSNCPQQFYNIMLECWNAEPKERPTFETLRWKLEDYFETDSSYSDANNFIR

Turning to `N#Cc1cccc(-c2c[nH]c3ncnc(N4CCOCC4)c23)c1`, the % of inhibition in [1] amounted to 13%.

On to `CC[C@@H]1[C@H](F)C(=O)N[C@@H]1COc1nccc2cc(C(N)=O)c(OC)cc12` [ZIMLOVISERTIB], for which the % of inhibition in [2] (at 0.01 µM) is 25.8%; in assay [2] (at 0.04 µM), 19.1%; in [2] (at 0.2 µM), -4.7%; in assay [2] (at 1 µM) it was 11.2%; in assay [2] (at 5 µM) it was 18.6%; in assay [3], 5.8%.

In the case of `C=CC(=O)Nc1cccc(C(=O)Nc2ccc(Nc3cc(-c4[nH]c(SC)nc4C)ccn3)cc2)c1`, the % of control in assay [4] (at 1 µM) was 97%; in assay [4] (at 5 µM), 94%.

`CN(C)C/C=C/C(=O)Nc1ccc(C(=O)N2CCCC(Nc3ncc(Cl)c(-c4c[nH]c5ccccc45)n3)C2)cc1` (stereo unspecified): in [5], the % of control was 0.95%.

In assay [6], `COc1cc(Nc2nc(C)cc(-c3cnn4nc(OC)ccc34)n2)cc(C(F)(F)F)c1` registered a % of control of 89%.

For `Cc1ccc(-c2ccc3c(ccc4sc5c(c43)NC[C@@H](C)NC5=O)n2)cn1`, in assay [7], the % of inhibition came to 32%.

As for `CN(C)CCOc1ccc(-c2nc(-c3ccncc3)c(-c3ccc4c(c3)CC/C4=N\O)[nH]2)cc1`, the % of control amounted to 74% in assay [8] and 100% in [9].

Take `O[C@H]1CC[C@H](Nc2ncc3nc(Nc4c(F)cc(F)cc4F)n([C@H]4CCOC4)c3n2)CC1`: the % of control in assay [10] came to 90%.

In [11], `COc1cc(N(C)c2ccnc3ccc(C(F)(F)F)cc23)cc(OC)c1OC` had a % binding of 100%.
